In US12522615B2, “Macrocyclic compounds and derivatives as EGFR inhibitors” (Boehringer Ingelheim International GmbH, priority 2019, dated 2026):
pIC50: −log10 of the molar value.

The molecules below were run against EGFR del19 T790M C797S (Homo sapiens, UniProt P00533, C797S/T790M, form not given) (assay: pEGFR assay: phosphorylation of EGFR at Tyr1068 in Ba/F3 cells (AlphaScreen Surefire)). Conditions: 4 h.
Sequence of EGFR del19 T790M C797S (P00533 25-1210 T790M/C797S limits assumed, form open): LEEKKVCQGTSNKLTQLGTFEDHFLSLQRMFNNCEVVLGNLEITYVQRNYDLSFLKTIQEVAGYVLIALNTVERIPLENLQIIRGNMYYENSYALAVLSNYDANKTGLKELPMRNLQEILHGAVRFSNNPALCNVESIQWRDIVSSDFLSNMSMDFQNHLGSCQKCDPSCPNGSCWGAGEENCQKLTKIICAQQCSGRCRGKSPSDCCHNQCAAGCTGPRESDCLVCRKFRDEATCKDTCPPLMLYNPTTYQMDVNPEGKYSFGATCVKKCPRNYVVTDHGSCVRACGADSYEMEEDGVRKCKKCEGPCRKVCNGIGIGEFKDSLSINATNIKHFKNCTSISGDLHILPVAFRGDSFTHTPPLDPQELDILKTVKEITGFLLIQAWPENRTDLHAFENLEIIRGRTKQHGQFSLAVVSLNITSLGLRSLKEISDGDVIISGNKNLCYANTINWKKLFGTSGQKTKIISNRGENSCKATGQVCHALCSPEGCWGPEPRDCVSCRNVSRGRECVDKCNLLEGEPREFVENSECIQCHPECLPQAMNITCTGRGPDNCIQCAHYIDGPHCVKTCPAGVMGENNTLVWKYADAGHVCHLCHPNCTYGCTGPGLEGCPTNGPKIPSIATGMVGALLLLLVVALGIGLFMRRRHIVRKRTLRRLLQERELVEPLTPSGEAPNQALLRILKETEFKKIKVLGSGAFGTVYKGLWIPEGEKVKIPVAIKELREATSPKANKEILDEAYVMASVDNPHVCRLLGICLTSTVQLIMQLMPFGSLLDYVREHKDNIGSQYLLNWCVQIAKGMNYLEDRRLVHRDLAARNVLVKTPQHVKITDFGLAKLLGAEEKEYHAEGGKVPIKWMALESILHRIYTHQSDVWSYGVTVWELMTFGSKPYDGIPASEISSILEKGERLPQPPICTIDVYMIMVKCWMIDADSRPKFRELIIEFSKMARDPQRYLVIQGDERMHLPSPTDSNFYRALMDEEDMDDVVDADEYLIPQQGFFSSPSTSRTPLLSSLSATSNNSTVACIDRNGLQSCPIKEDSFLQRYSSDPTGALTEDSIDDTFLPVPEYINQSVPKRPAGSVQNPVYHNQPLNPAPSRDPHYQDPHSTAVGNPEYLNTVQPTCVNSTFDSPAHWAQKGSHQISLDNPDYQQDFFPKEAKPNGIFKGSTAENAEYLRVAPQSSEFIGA
Format: cell-based
Procedure: Transduced cells were selected using puromycin. Following selection, IL-3 was withdrawn and IL-3 independent cells cultured. p-EGFR Tyr1068 was determined using the AlphaScreen Surefire pEGF Receptor (Tyr1068) Assay (PerkinElmer, TGRERS). […] Subsequently, 60.000 cells/well in 60 μL were added. Cells were incubated with compound for 4 h at 37° C. […] The mixture was incubated at room temperature with shaking (700 rpm) for 20 min. After centrifugation, 4 μL of the lysate were transferred to Proxiplates. […] Plates were shaken for 1 min (1400 rpm) and incubated for 2 h at room temperature in the dark.
Molecule `Cc1cc2cc(n1)-c1cnn(C)c1OCCCCCCN1/C(=N/C2=O)Nc2ccccc21` [Compound I-002] has a pIC50 of 8.38.
With `C[C@@H]1CCCOc2c(cnn2C)-c2cc(cc(C#N)n2)C(=O)/N=C2\Nc3ccccc3N2C1` [Compound I-004] the pIC50 was 8.89.
`Cc1cc2cc(n1)-c1cnn(C)c1OCC[C@@H]1CC[C@@H](C1)N1/C(=N/C2=O)Nc2ccccc21` [Compound I-006] was tested, and the pIC50 was 7.77.
`Cc1cc2cc(n1)-c1cnn(C)c1OCCC[C@@H](O)CN1/C(=N/C2=O)Nc2ccccc21` [Compound I-007] was tested, and the pIC50 was 8.96.
Work on `Cc1cc2cc(n1)-c1cnn(C)c1OCCC[C@H](O)CN1/C(=N/C2=O)Nc2ccccc21` [Compound I-008] yielded a pIC50 of 8.13.
In the case of `Cc1cc2cc(n1)-c1cnn(C)c1OCC[C@H](O)CCN1/C(=N/C2=O)Nc2ccccc21` [Compound I-009], the pIC50 was 9.00.
With `Cc1cc2cc(n1)-c1cnn(C)c1OCCC(O)CCN1/C(=N/C2=O)Nc2ccccc21` (stereo not shown) [Compound I-010] the pIC50 was 8.92.
Work on `Cc1cc2cc(n1)-c1cnn(C)c1OCC[C@@H](O)CCN1/C(=N/C2=O)Nc2ccccc21` [Compound I-011] yielded a pIC50 of 8.19.
Molecule `Cn1ncc2c1OCCC(O)CCN1/C(=N/C(=O)c3cc(Cl)nc-2c3)Nc2ccccc21` (stereo not shown) [Compound I-012] has a pIC50 of 8.28.
For `Cc1cc2cc(n1)-c1cnn(C)c1OC[C@@H](O)C[C@@H](C)CN1/C(=N/C2=O)Nc2ccccc21` [Compound I-013], the pIC50 was 9.15.
In the case of `Cc1cc2cc(n1)-c1cnn(C)c1OC[C@H](O)C[C@@H](C)CN1/C(=N/C2=O)Nc2ccccc21` [Compound I-014], the pIC50 was 8.38.
`Cc1cc2cc(n1)-c1cnn(C)c1OCC[C@H](O)[C@@H](C)CN1/C(=N/C2=O)Nc2ccccc21` [Compound I-015] showed a pIC50 of 9.22.
`Cc1cc2cc(n1)-c1cnn(C)c1OC[C@@H](C)[C@H](O)CCN1/C(=N/C2=O)Nc2ccccc21` [Compound I-016] showed a pIC50 of 9.10.
`Cc1cc2cc(n1)-c1cnn(C)c1OC[C@@H](C)[C@@H](O)CCN1/C(=N/C2=O)Nc2ccccc21` [Compound I-017] gave a pIC50 of 8.05.
`Cc1cc2cc(n1)-c1cnn(C)c1OCCC[C@@H](C)CN1/C(=N/C2=O)Nc2ccc(OCCN3CCN(C)CC3)cc21` [Compound I-018] was tested, and the pIC50 was 9.30.
Molecule `Cc1cc2cc(n1)-c1cnn(C)c1OCCC[C@@H](C)CN1/C(=N/C2=O)Nc2ccc(N3CCN(C)CC3)cc21` [Compound I-019] has a pIC50 of 9.22.
Molecule `CC[C@@H]1CCCOc2c(cnn2C)-c2cc(cc(C)n2)C(=O)/N=C2\Nc3ccc(N4CCN(C)CC4)cc3N2C1` [Compound I-020] has a pIC50 of 9.22.
Molecule `C[C@@H]1CCCOc2c(cnn2C)-c2cc(cc(Cl)n2)C(=O)/N=C2\Nc3ccc(CN4CCN(C)CC4)cc3N2C1` [Compound I-022] has a pIC50 of 9.10.
For `C[C@@H]1CCCOc2c(cnn2C)-c2cc(cc(F)n2)C(=O)/N=C2\Nc3cn(C)nc3N2C1` [Compound I-023], the pIC50 was 9.30.
For `Cc1cc2cc(n1)-c1cnn(C)c1OCCC[C@@H](C)CN1/C(=N/C2=O)Nc2cn(C)nc21` [Compound I-024], the pIC50 was 9.22.
`Cc1cc2cc(n1)-c1cnn(C)c1OCCC[C@@H](C)CN1/C(=N/C2=O)Nc2cnn(C)c21` [Compound I-025] was tested, and the pIC50 was 9.10.
Molecule `C[C@@H]1CCCOc2c(cnn2C)-c2cc(cc(Cl)n2)C(=O)/N=C2\Nc3cn(C)nc3N2C1` [Compound I-026] has a pIC50 of 8.82.
`C[C@@H]1C[C@H](O)COc2c(cnn2C)-c2cc(cc(Cl)n2)C(=O)/N=C2\Nc3cn(C)nc3N2C1` [Compound I-028] showed a pIC50 of 8.46.
Work on `C[C@@H]1CCCOc2c(cnn2C)-c2cc(cc(Cl)n2)C(=O)/N=C2\Nc3cnn(C)c3N2C1` [Compound I-029] yielded a pIC50 of 8.12.
For `Cc1cc2cc(n1)-c1cnn(C)c1OCCC(O)CCN1/C(=N/C2=O)Nc2cnn(C)c21` (stereo not shown) [Compound I-030], the pIC50 was 7.55.
`Cc1cc2cc(n1)-c1cnn(C)c1OC[C@@H](C)CCCN1/C(=N/C2=O)Nc2ccc(N3CCN(C)CC3)cc21` [Compound I-031] was tested, and the pIC50 was 9.30.
Work on `Cc1cc2cc(n1)-c1cnn(C)c1OCCC[C@@H](C)CN1/C(=N/C2=O)Nc2ccc(N3CCOCC3)cc21` [Compound I-032] yielded a pIC50 of 9.22.
Work on `Cc1cc2cc(n1)-c1cnn(C)c1OCCC[C@@H](C)CN1/C(=N/C2=O)Nc2cc(N3CCN(C)CC3)ccc21` [Compound I-033] yielded a pIC50 of 9.22.
With `C[C@@H]1CCCOc2c(cnn2C)-c2cc(cc(F)n2)C(=O)/N=C2\Nc3ccccc3N2C1` [Compound I-034] the pIC50 was 9.15.
Molecule `Cc1cc2cc(n1)-c1cnn(C)c1OCCC[C@@H](C)CN1/C(=N/C2=O)Nc2ccc(CN(C)C)cc21` [Compound I-035] has a pIC50 of 9.15.
`C[C@@H]1CCCOc2c(cnn2C)-c2cc(ccn2)C(=O)/N=C2\Nc3cnn(C)c3N2C1` [Compound I-036] showed a pIC50 of 9.15.
`Cc1cc2cc(n1)-c1cnn(C)c1OCCC[C@@H](C)CN1/C(=N/C2=O)Nc2ccc(C(=O)N(C)C)cc21` [Compound I-038] was tested, and the pIC50 was 8.89.
Work on `Cc1cc2cc(n1)-c1cnn(C)c1OCCC[C@@H](C)CN1/C(=N/C2=O)Nc2ccc(C(=O)N3CCN(C)CC3)cc21` [Compound I-039] yielded a pIC50 of 8.80.
With `Cc1cc2cc(n1)-c1cnn(C)c1OC[C@@H](C)CCCN1/C(=N/C2=O)Nc2cnn(C)c21` [Compound I-040] the pIC50 was 8.77.
Molecule `COc1cccc2c1N1C[C@H](C)CCCOc3c(cnn3C)-c3cc(cc(C)n3)C(=O)/N=C/1N2` [Compound I-041] has a pIC50 of 8.72.
`COC(=O)c1ccc2c(c1)N1C[C@H](C)CCCOc3c(cnn3C)-c3cc(cc(C)n3)C(=O)/N=C/1N2` [Compound I-042] gave a pIC50 of 8.64.
`Cc1cc2cc(n1)-c1cnn(C)c1OC[C@@H](C)CCCN1/C(=N/C2=O)Nc2cc(N3CCN(C)CC3)ccc21` [Compound I-043] gave a pIC50 of 8.64.
With `C[C@@H]1CCCOc2c(cnn2C)-c2cc(ccn2)C(=O)/N=C2\Nc3cn(C)nc3N2C1` [Compound I-044] the pIC50 was 8.47.
Molecule `Cc1cc2cc(n1)-c1cnn(C)c1OCC[C@@H](O)[C@H](C)CN1/C(=N/C2=O)Nc2ccccc21` [Compound I-045] has a pIC50 of 8.44.
`O=C1/N=C2\Nc3ccccc3N2CCCCCOc2ccccc2-c2cc1ccn2` [Compound I-047] gave a pIC50 of 8.21.
`C[C@@H]1CCOc2ccccc2-c2cc(ccn2)C(=O)/N=C2\Nc3ccccc3N2CC1` [Compound I-048] gave a pIC50 of 7.82.
With `Cc1cc2cc(n1)-c1ccccc1OCCCCCN1/C(=N/C2=O)Nc2ccccc21` [Compound I-049] the pIC50 was 7.80.
With `CC1(C)CCCOc2ccccc2-c2cc(ccn2)C(=O)/N=C2\Nc3ccccc3N2C1` [Compound I-050] the pIC50 was 7.77.
`C[C@H]1CCCOc2ccccc2-c2cc(ccn2)C(=O)/N=C2\Nc3ccccc3N2C1` [Compound I-051] showed a pIC50 of 7.70.
With `Cc1cc2cc(n1)-c1cnn(C)c1OCCCCCCCN1/C(=N/C2=O)Nc2ccccc21` [Compound I-052] the pIC50 was 7.64.
In the case of `O=C1/N=C2\Nc3ccccc3N2CCCCCOc2cc(F)ccc2-c2cc1ccn2` [Compound I-053], the pIC50 was 7.62.
`CC1(C)CCOc2ccccc2-c2cc(ccn2)C(=O)/N=C2\Nc3ccccc3N2CC1` [Compound I-054] gave a pIC50 of 7.60.
With `Cc1cc2cc(n1)-c1cnn(C)c1OCCCCN1/C(=N/C2=O)Nc2ccccc21` [Compound I-055] the pIC50 was 7.18.
With `Cc1cc2cc(n1)-c1ccc(F)cc1OCCCCCN1/C(=N/C2=O)Nc2ccccc21` [Compound I-056] the pIC50 was 7.16.
